Laboratory results as given in patent US8088934B2, “Composition and method for stabilizing the same” (SUCAMPO AG, priority 1999, dated 2012).

Assays:
Assay type in all cases: physicochemical
[1] = Stability of the compounds dissolved in medium chain fatty acid triglyceride (MCT) stored at 40° C., content by HPLC; conditions: for stability on admixing with the glyceride (conclusion from Table 1): MCT versus crystal; for content of the compound stored at 40° C., 14 days / content of the compound stored at 40° C., initial: in MCT (compound 1: 0.36 mg/g; compound 2: 0.12 mg/g)
Experimental: (§1) The above-described compounds 1 and 2 were dissolved in the medium chain fatty acid triglyceride (MCT)^31 at the amount shown in the table 1 below respectively. Each of the solutions was placed in a container made of hard glass and stored at 40° C. The time-course of the content of the compound 1 and 2 in the solutions were determined by HPLC method. The medium chain fatty acid triglyceride used herein was a mixture of caprylic acid triglyceride and capric acid triglyceride (85:15). At the same time, each of the compounds 1 and 2 was placed solely (without being dissolved in the solvent) in the container as above and stored at 40° C. to provide control study.
(§2) Based on the value expressed in the table 1, an amount of the solution corresponding to 36 μg of the compound 1 or 2 was weighted precisely. Precisely 1.0 ml of an internal standard solution was added, and then ethyl acetate (liquid chromatograph grade) was added to give the total amount of 10 ml each. Each 0.1 ml of the solution was vacuum concentrated to dryness to give the test preparation.
(§3) Each 18 mg of the respective standard compounds was weighted precisely and admixed with ethyl acetate (liquid chromatograph grade) to give the total amount of exactly 50 ml each. One (1.0) ml of the solution and 10.0 ml of the internal standard solution were measured precisely and admixed with ethyl acetate (liquid chromatograph grade) to give the total amount of 100 ml each. Each 0.1 ml of the solution was vacuum concentrated to dryness to give the standard preparation.
(§4) To the test and standard preparations, 0.1 ml of fluorescent labeling reagent and 0.85 ml of fluorescent labeling catalyst were added respectively, and the mixture was stirred and reacted at room temperature more than 30 minutes. 0.05 ml aliquots of acetonitrile (liquid chromatograph grade) containing 2% acetic acid were added to the reaction mixtures respectively, stirred and then stand for more than 30 minutes to provide test and standard solutions.
(§5) Each 10 μl of the test and standard solutions was loaded on liquid chromatograph and determined the content of the respective compounds by internal standard method with one point calibration curve.
(§6) [formula] WS: The amount of the compound in the standard preparation (mg) QS: Peak area ratio of the compound in the standard preparation to the internal standard QT: Peak area ratio of the compound in the test preparation to the internal standard. Measurement Condition Detector: fluorescent spectrometer (excitation wavelength 259 nm, fluorescent wavelength 394 nm) Column: A stainless tube having about 5 mm of internal diameter and about 25 cm of length, packed with 5 μm octadecylsilyl silica gel for liquid chromatograph Column temperature: Stable at around 35° C. Mobile phase: Mixed solution of acetonitrile (liquid chromatograph grade)/methanol (liquid chromatograph grade)/aqueous ammonium acetate (0.05 mol/l) (4:11:5) The results are shown in Table 1 below.

[2] = Stability of compound 1 stored at 40° C. for 4 weeks in various ratio of MCT to Mineral oil, content by HPLC
Experimental: as §2, §3, §4, §5, §6
Each of the solutions was placed in a container made of LDPE and stored at 40° C. The content of the compound in the solutions after four weeks were determined by HPLC method according to the above described (2) of Example 1 except for using composition shown in table 3 below.

[3] = Stability of the compounds stored solely (crystal, without solvent) at 40° C., content by HPLC; conditions: crystal (no solvent), hard glass container
Experimental: as §1
(1) Under the absence of the solvent, the content of the compound was determined as follows (HPLC method).
The stored compounds 1 and 2, and standard compounds 1 and 2 were weighed precisely around 0.025 g each, and exactly 5 ml aliquots of an internal standard solution were added to the respective weighed compounds. Then the test and standard preparations were obtained by adding acetonitrile (liquid chromatograph grade) to give the precise total amount of 10 ml each. Each 10 μl of the test and standard preparations was loaded on liquid chromatograph and determined the content of the compound by internal standard method with one point calibration curve.
[formula] Ws: The amount of the compound in the standard preparation (mg) WT: The amount of the compound 1 or 2 in the test preparation QS: Peak area ratio of the compound in the standard preparation to the internal standard. QT: Peak area ratio of the compound in the test preparation to the internal standard. Measurement Conditions Detector: Ultraviolet absorption spectrophotometer (wavelength: 294 nm) Column: A stainless tube having about 5 mm of internal diameter and about 25 cm of length, packed with 5 μm octadecylsilyl silica gel for liquid chromatograph Column temperature: Stable at around 35° C. Mobile phase: Mixed solution of acetonitrile (liquid chromatograph grade)/aqueous sodium acetate (0.01 mol/l)/glacial acetic acid (800:200:1) (2) Under the presence of the solvent, the content of the compound was determined as follows (HPLC method).

[4] = Stability of compound 1 stored at 40° C. for 4 weeks in various solvents and containers, content by HPLC
Experimental: as §2, §3, §4, §5, §6
Each of the solutions was placed in a container made of low-density polyethylene (LDPE), hard glass or stainless steel and stored at 40° C. The content of the compound 1 in the solutions after four weeks were determined by HPLC method according to the above described (2) of Example 1 except for using composition shown in table 2 below.

In the case of CCCCC(F)(F)[C@@]1(O)CC[C@H]2[C@@H](CC(=O)[C@@H]2CCCCCCC(=O)O)O1 [compound 1, 7-[(1R,3R,6R,7R)-3-(1,1-difluoropentyl)-3-hydroxy-2-oxabicyclo[4.3.0]nonane-8-one-7-yl]heptanoic acid], the “stability on admixing with the glyceride (conclusion from Table 1)” value [1] is reported as “significantly improved”, the “content of the compound stored at 40° C., 38 days” value ([1]; in MCT (compound 1: 0.36 mg/g), hard glass, 38 days) is reported as 102.1% and the “content of the compound stored at 40° C., 90 days” value ([1]; in MCT (compound 1: 0.36 mg/g), hard glass, 90 days) is reported as 100.9%. For the same molecule, the “content of the compound stored at 40° C., 14 days” value (“content … 14 days” for short) ([1]; hard glass) was 101.4%, the “content of the compound stored at 40° C., initial” value (“content … initial” for short) ([1]; hard glass) was 100% and the “% to the initial 4 weeks after” value ([2]; 0.5 μg/mL, MCT/MO (V/V) 1/99, LDPE) was 91.0%. The “% to the initial 4 weeks after” value ([2]; 0.5 μg/mL, MCT/MO (V/V) 2/98, LDPE) was 96.6%, the “% to the initial 4 weeks after” value ([2]; 0.5 μg/mL, MCT/MO (V/V) 5/95, LDPE) was 98.1% and the “% to the initial 4 weeks after” value ([2]; 0.5 μg/mL, MCT/MO (V/V) 10/90, LDPE) was 99.0%. The “% to the initial 4 weeks after” value ([2]; 0.7 μg/mL, MCT/MO (V/V) 0/100, LDPE) was 88.3%, the “% to the initial 4 weeks after” value ([2]; 10 μg/mL, MCT/MO (V/V) 50/50, LDPE) was 101.9% and the “stability on admixing with the mixture of glyceride and other oil solvent (conclusion from Table 3)” value ([2]; MCT/Mineral oil mixtures) was “significantly improved”. The “content of the compound stored at 40° C., 7 days” value ([3]; 7 days) was 97.2%, the “content … 14 days” value [3] was 94.1% and the “content of the compound stored at 40° C., 28 days” value (“content … 28 days” for short) [3] was 87.4%. For the same molecule, the “content … initial” value [3] was 100%, the “% to the initial 4 weeks after” value ([4]; 10 μg/mL, MCT, LDPE container) was 100.8% and the “% to the initial 4 weeks after” value ([4]; 10 μg/mL, Saline, Hard glass container) was 18.0%. The “% to the initial 4 weeks after” value ([4]; 20 μg/mL, Caster oil, LDPE container) was 102.9%, the “% to the initial 4 weeks after” value ([4]; 20 μg/mL, Corn oil, LDPE container) was 99.6% and the “% to the initial 4 weeks after” value ([4]; 20 μg/mL, Diluted water, Hard glass container) was 39.6%. The “% to the initial 4 weeks after” value ([4]; 20 μg/mL, MCT, Hard glass container) was 99.5%, the “% to the initial 4 weeks after” value ([4]; 20 μg/mL, MCT, Stainless steel container) was 99.5% and the “% to the initial 4 weeks after” value ([4]; 20 μg/mL, Olive oil, LDPE container) was 99.0%. For the same molecule, the “% to the initial 4 weeks after” value ([4]; 20 μg/mL, Sesame oil, LDPE container) was 100.1% and the “stability on admixing with the glyceride (conclusion from Table 2)” value ([4]; glycerides versus water or saline) was “significantly improved”.

For CC[C@H](C)CC(F)(F)[C@@]1(O)CC[C@H]2[C@@H](CC(=O)[C@@H]2CCCCCCC(=O)O)O1 [compound 2, 7-[(1R,6R,7R)-3-[(3S)-1,1-difluoro-3-methylpentyl]-3-hydroxy-2-oxabicyclo[4.3.0]nonane-8-one-7-yl]heptanoic acid], the “stability on admixing with the glyceride (conclusion from Table 1)” value [1] was “significantly improved”, the “content … 14 days” value ([1]; hard glass) was 99.6% and the “content … initial” value ([1]; hard glass) was 100%. The “content … 28 days” value ([1]; in MCT (compound 2: 0.12 mg/g), hard glass, 28 days) was 98.9%, the “content of the compound stored at 40° C., 191 days” value ([1]; in MCT (compound 2: 0.12 mg/g), hard glass, 191 days) was 99.6% and the “content of the compound stored at 40° C., 6 days” value ([3]; 6 days) was 84.5%. The “content … 14 days” value [3] was 75.0%, the “content … 28 days” value [3] was 53.4% and the “content … initial” value [3] was 100%.
